Values joined by “and” are separate entries in the source; they are usually repeats but may differ in a detail not shown here. Equal values may be shown once. Active and inactive are the calls of the source.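 How the source made its calls: active means compounds giving half or more protection of infected cells from virus-caused growth loss, again on retest; inactive means the rest.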 *1 amine or outer side, *2 acyl side, *3 side chain or, on linkers, in order; H or OH if unused. Where a SMILES comes first, the peptide text is derived from it. Bridges are numbered along the chain shown (N, C = ends). [ ]: non-standard residue; d: D form. The star is where a group is joined. ξ: configuration not given here. Fmoc = O=C(OCC1c2ccccc2-c2ccccc21)*; X2 = O=C(C(CCCCNO[*:3])N[*:1])[*:2]; ξW = NC(Cc1c[nH]c2ccccc12)C(=O)O; ξP = O=C(O)C1CCCN1

The results in this text go back to PubChem BioAssay AID179 (DTP/NCI, 2004).

In this experiment the test system is CEM cells HIV-1 protection, formazan growth assay. As to the kind of experiment: NCI AIDS Antiviral Assay. Particulars: for IC50: measured here: growth of uninfected CEM cells. A digest of the protocol:
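Soluble formazan readout of cell growth; CEM cells ± HIV-1; 5 drug concs. ≥50% protection → retest; ≥50% again = moderately active; reproducible 100% = confirmed active.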

Consider `CNC(=S)/C(C#N)=C(\N)N1CCN(C)CC1`, for which the EC50 was over 200 µM and the IC50 is over 200 µM.

Take `NC(CCCNCc1ccccc1)C(=O)O` (stereo not drawn): the EC50 was over 562 µM and the IC50 was over 562 µM.

As to `CN(C)c1ccc(C(=S)c2ccc(N(C)C)cc2)cc1`, the EC50 is over 200 µM and the IC50 turned out to be 0.741 µM.

As to `COC(=O)C(C)(C)C(OP(=O)(OC)OC)=C(C)C`, the EC50 was over 891 µM and the IC50 is over 891 µM.

On to `CP(C)(=S)P(C)(C)=S`, for which the EC50 was over 200 µM and the IC50 came to 110 µM.

As for `COc1cccc(N=N/C(=N/NC(=O)c2cc(Cl)ccc2O)c2ccc(N(CCC#N)CCC#N)cc2C)c1`, the EC50 was over 200 µM and the IC50 came out at 29.5 µM.

For `Cc1ccc2[nH]c(=O)c(C(C#N)c3ccccc3)nc2c1` (stereo not drawn), the outcome was inactive.

`COC(=O)C1(CCC(=O)N(C)c2ccccc2)NNC2C(=O)N(c3ccccc3)C(=O)C21` (stereo not drawn): the EC50 is over 200 µM and the IC50 was over 200 µM.

Take `Cc1ccc([S+](c2ccccc2)c2cc(C)ccc2C)cc1` (stereo not drawn): the EC50 was over 646 µM and the IC50 was 1.17 µM.

For the compound `O=c1[nH]nc(-c2ccccc2)n1/N=C/c1c(O)ccc2ccccc12`, the EC50 is over 200 µM and the IC50 stood at 112 µM.

Regarding `CCCCCCCCCCCCCCCCCCOCC(COP(=O)(O)OCC1OC(n2cc(C)c(=O)[nH]c2=O)CC1N=[N+]=[N-])OC(=O)CCCCCCCCCCCCCCC` (stereo not drawn), the EC50 was over 50.1 µM and the IC50 was over 50.1 µM.

Regarding `CC(=O)OCC(C)C1=C(OC(C)=O)C(=O)C2(C)C/C=C(/C)CC/C=C(\C)CCC(OC(C)=O)C(C)CCC12` (stereo not drawn), the EC50 was over 200 µM and the IC50 turned out to be 14.5 µM.

As for `O=C(O)C1CCCCN1c1ccccc1[N+](=O)[O-]` (stereo not drawn), the result was inactive.

With `CC(C)(C)OC(=O)C1CCC/C1=N/Nc1ccc([N+](=O)[O-])cc1[N+](=O)[O-]` (stereo not drawn), the EC50 is over 200 µM and the IC50 turned out to be 30.2 µM.

As to `O=C(NC/C(Cl)=C/Cl)Nc1cccc2c1CCCC2`, the EC50 was over 200 µM and the IC50 stood at 50.1 µM.

As for `O=c1c(C=Nc2ccc([N+](=O)[O-])cc2)c(O)n(-c2ccccc2)c(=O)n1-c1ccccc1`, the EC50 was over 200 µM and the IC50 came out at 21.4 µM.

On to `CCOC(=O)Cc1ccc(Nc2nc3ccccc3nc2C(=O)OCC)cc1`, for which the EC50 is 91.2 µM and the IC50 was over 200 µM.

For the compound `CC(=O)NNc1nc(C)c(C(/C=C/c2ccc(Cl)cc2)=N/NC(=O)C[N+](C)(C)C)s1`, the EC50 is over 14.8 µM and the IC50 is over 14.8 µM.

On to `O=S(c1ccccc1)c1ccccc1`, for which the EC50 was over 447 µM and the IC50 was 389 µM.

Take `CC1(C)OC(=O)CC(=O)O1`: the EC50 is over 200 µM and the IC50 was over 200 µM.

`O=C(O)CCCCC1CCSS1` (stereo not drawn): the EC50 was 186 µM and the IC50 was over 200 µM.

Take `COC(=O)c1ccccc1CC1Cc2cc3c(cc2C1=O)CCC3` (stereo not drawn): the EC50 was over 200 µM and the IC50 is 7.59 µM.

For the compound `CCCCCCC(=O)C(O)C(O)C(=O)CCCCCCCC(=O)O` (stereo not drawn), the EC50 is over 200 µM and the IC50 was 97.7 µM.

Take `Nc1nc(Cl)cc(NCCCCCCCCCCNc2cc(Cl)nc(N)n2)n1`: the result was inactive.

For `NC(=O)CNC(=O)C1CCCN1C(=O)C1CCCCNOC(=O)CC[C@@H](NC(=O)OCC2c3ccccc3-c3ccccc32)C(=O)NC(Cc2c[nH]c3ccccc23)C(=O)N1` (stereo partly drawn) (Fmoc-[dE][ξW][X2][ξP]G-NH2; ester 1-3), the EC50 is over 100 µM and the IC50 is over 100 µM.

In the case of `CC1(C)Oc2ccc3c(=O)c4ccccc4oc3c2C1C(=O)O` (stereo not drawn), the EC50 is over 200 µM and the IC50 was over 200 µM.

Consider `C=C(C)OCOCCOC`, for which the EC50 was over 200 µM and the IC50 is over 200 µM.

For the compound `CC(O)(c1ccccc1)c1ccc2ccccc2n1` (stereo not drawn), the EC50 is over 200 µM and the IC50 amounted to 38 µM.

Turning to `CC1=C(C(=O)NNS(=O)(=O)c2ccc(C)cc2)CC(C(=O)NNS(=O)(=O)c2ccc(C)cc2)=C(C)N1`, the EC50 is over 13.5 µM and the IC50 is over 13.5 µM.

With `COc1ccc(NC(=O)CC(=O)NN)cc1`, the EC50 was over 200 µM and the IC50 was over 200 µM.

Turning to `OC1COC(c2ccccc2)OC1C1OC(c2ccccc2)OC2COC(c3ccccc3)OC21` (stereo not drawn), the EC50 is over 100 µM and the IC50 is over 100 µM.

`CCCCC1(NN=C2CCCCC2)C(=O)N(c2ccccc2)N(c2ccccc2)C1=O`: the EC50 is over 200 µM and the IC50 came out at 102 µM.

For the compound `Cn1c(=O)c2ncc(N)nc2n(C)c1=O`, the EC50 is over 100 µM and the IC50 was over 100 µM.

Take `COC1/C=C/OC2(C)Oc3c(C)c(O)c4c(O)c(c(C=NN5CCCCCCCC5)c(O)c4c3C2=O)NC(=O)/C(C)=C/C=C/C(C)C(O)C(C)C(O)C(C)C(OC(C)=O)C1C` (stereo not drawn): the result was inactive.

On to `C/C=C/[C@H](O[Si](C)(C)C(C)(C)C)[C@@H](O)/C=C/C(=O)OCC`, for which the EC50 was over 200 µM and the IC50 came out at 28.8 µM.

As for `CC1=Nc2ccccc2NC(C)(C)C1`, the EC50 was over 955 µM; the IC50 is 56.2 µM and 37.2 µM and > 200 µM.

`CCCN1C(=O)/C(=C(/O)C(=O)OCC)C(c2ccc(OC)c(OC)c2)C1=O` (stereo not drawn): the result was inactive.

In the case of `CC(C)C1CNC(=O)C2(C=NC(C(C)C)CNC(=O)C3(C=N1)CCCO3)CCCO2` (stereo not drawn), the EC50 is over 12.3 µM and the IC50 is over 12.3 µM.

As to `CC(C)=CCN1Cc2cc(Cl)cc3[nH]c(=S)n(c23)CC1C` (stereo not drawn), the outcome was active and the IC50 came to 26.9 µM.

Turning to `CC(C)(C)C1CCC2c3c([nH]c4ccccc34)C3C(=O)N(c4ccc(Cl)cc4)C(=O)C3C2C1` (stereo not drawn), the EC50 is over 200 µM and the IC50 is over 100 µM.

For `NC(CSS(=O)(=O)O)=NCCc1ccc(O)cc1`, the EC50 is over 200 µM and the IC50 is over 200 µM.

For `CN(C)CCN1CCc2c([nH]c3ccccc23)C1c1cccnc1` (stereo not drawn), the EC50 is over 6.31 µM and the 50% inhibitory concentration (IC50) was over 6.31 µM.

With `CCC1C(=O)OC2OC(c3ccccc3)(c3ccccc3)NC21` (stereo not drawn), the EC50 is over 200 µM and the IC50 is over 100 µM.

Consider `O=C1NC2c3c(I)sc(I)c3C(O)C2O1` (stereo not drawn), for which the EC50 is over 200 µM and the IC50 was determined as 141 µM.

Consider `CCCCCCCCCC1CC(=O)OC2=C1C(=O)CCC2` (stereo not drawn), for which the EC50 is over 46.8 µM and the IC50 is over 46.8 µM.

For the compound `CC(=O)OCC12CC(CC1OC(C)=O)c1ccccc12` (stereo not drawn), the EC50 was over 251 µM and the IC50 is over 251 µM.

In the case of `CC(C)OC(=S)SSC(=S)OC(C)C`, the EC50 was over 200 µM and the IC50 is 6.92 µM.

Consider `CC(=O)C(C(c1ccccc1)N1CCCc2ccccc21)N1CCOCC1` (stereo not drawn), for which the EC50 was over 200 µM and the IC50 came out at 61.7 µM.

For `CO[C@]12CCC(=O)N1C=Cc1c2[nH]c2ccccc12`, the result was inactive.

In the case of `COc1c(O)c2ccccc2c2cc(O)ccc12`, the EC50 is over 1050 µM and the IC50 was found to be 5.25 µM.

For `CN(C)c1ccc(/C=C(\C#N)c2ccc(Br)cc2)cc1`, the EC50 is over 100 µM and the IC50 was 1.35 µM.

For the compound `Cc1cccc(-n2c(N)c(-c3nc4ccccc4[nH]3)sc2=S)c1`, the EC50 was over 5.89 µM and the IC50 was over 5.89 µM.

As for `O=C1/C(=C/c2ccc([N+](=O)[O-])cc2)Cc2ccccc21`, the EC50 was over 2.04 µM and the concentration for half-maximal inhibition (IC50) was over 2.04 µM.

On to `O=c1oc2ccccc2c2c1SC(c1ccncc1)C2` (stereo not drawn), for which the EC50 was over 200 µM and the IC50 is over 200 µM.

As for `COc1ccc(C2C(Cl)C(=O)N2n2cnc3ccccc3c2=O)cc1` (stereo not drawn), the EC50 was over 3.8 µM and the half-maximal inhibitory concentration (IC50) is over 3.8 µM.

On to `CC(C)(CC#N)c1cc(CC(C)(C)c2cc(CC(C)(C)c3cc(C(C)(C)C4(C)OCCO4)no3)no2)no1`, for which the EC50 was over 200 µM and the concentration for half-maximal inhibition (IC50) is 60.3 µM.

As to `Cc1ccnc2c1C(=O)C1=C(OC(C)(C)CC1O)C2=O` (stereo not drawn), the EC50 is over 200 µM and the IC50 came out at 10.7 µM.

Take `Clc1ccc(OCc2nnc(CCCCCCCCc3nnc(COc4ccc(Cl)cc4)n3Nc3ccccc3)n2Nc2ccccc2)cc1`: the result was inactive.

On to `COC(=O)C1=C(\N2CCOCC2)CCCCC/C=C\1C(=O)OC`, for which the EC50 was over 776 µM and the IC50 was 513 µM.

Take `N#C/C(C(=S)Nc1ccc(Cl)cc1)=C1/Nc2ccccc2O1`: the EC50 was over 200 µM and the IC50 was 37.2 µM.

As to `C[n+]1ccc(-c2c3nc(c(-c4cc[n+](C)cc4)c4ccc([n-]4)c(-c4cc[n+](C)cc4)c4nc(c(-c5cc[n+](C)cc5)c5ccc2[n-]5)C=C4)C=C3)cc1.[I-].[Zn+2]`, the EC50 is over 72.4 µM and the IC50 came to 14.1 µM.

Turning to `c1ccc2cc3c(NC4=NCCO4)cccc3cc2c1`, the EC50 was over 200 µM and the IC50 came out at 64.6 µM.

For the compound `COC1/C=C\OC2(C)Oc3c(C)c(O)c4c(O)c(c(/C=N\O)c(O)c4c3C2=O)NC(=O)/C(C)=C\C=C/C(C)C(O)C(C)C(O)C(C)C(OC(C)=O)C1C` (stereo not drawn), the EC50 is over 77.6 µM and the IC50 came out at 74.1 µM.

As to `O=c1[nH]cnc2c1C(c1ccccc1)c1ccccc1-2` (stereo not drawn), the EC50 was over 38 µM and the half-inhibitory concentration (IC50) was over 38 µM.

For the compound `N#Cc1c(N)c2c(c(-c3ccccc3)c1-c1ccccc1)C(=O)N(N)C2=O`, the EC50 was over 200 µM and the IC50 was 117 µM.

Turning to `c1ccc2c(c1)nnn1c3cnccc3nc21`, the EC50 was over 58.9 µM and the IC50 came out at 6.76 µM.

With `C=C1c2nc3ccccc3n2C=C(c2ccccc2)N1c1ccc(Cl)cc1`, the EC50 was over 200 µM and the IC50 was 32.4 µM.

As for `Cc1cc(-c2ccco2)oc(=O)c1NC(=O)c1ccccc1`, the EC50 was over 200 µM and the IC50 is 25.1 µM.

Take `NC(=O)NC(=O)C1CCC(=O)N1S(=O)(=O)c1ccc(Cl)cc1` (stereo not drawn): the EC50 was over 724 µM and the IC50 came to 141 µM.

On to `CCCCCCCCC=CCCCCCCCC(=O)O[C@H](COC(=O)CCCCCCC/C=C\CCCCCCCC)COP(=O)(O)OCCNC(=O)CCC(=O)OCCC=C(c1cc(Cl)c(OC)c(C(=O)OC)c1)c1cc(Cl)c(OC)c(C(=O)OC)c1`, for which the EC50 was over 100 µM and the IC50 came to 60.3 µM.
